According to patent publication US10125095B2, “Abscisic acid derivative” (NATIONAL UNIVERSITY CORPORATION SHIZUOKA UNIVERSITY, priority 2014, dated 2018):

How the values were obtained:
[1] = system: seeds of thale cress (Arabidopsis thaliana, Col-0); test: Thale cress seed germination test; type: in vivo
Experimental: Seeds of thale cress (Arabidopsis thaliana, Col-0) were immersed in 500 μL of an aqueous solution of 70% ethanol for 30 minutes, subsequently in 500 μL of a 100% ethanol solution for 1 minute, washed five times in 1 mL of distilled water, then immersed in distilled water and, in a dark place, vernalized at 4° C. for 3 days. A solution of the sample in methanol was put in a 1.5 mL-microtube, and methanol was removed therefrom under reduced pressure. An aqueous solution of 0.5% agar (containing ½ MS medium inorganic salts) at 70° C. was added thereto and stirred, and subsequently the obtained mixture was placed in a 96-well plate to prepare the medium containing the sample. All samples were prepared so as to have a concentration of 3 μM of the compound in Examples 1 to 9 and Comparative Example 1. Further, when ABA is applied, the ABA concentration was adjusted to 0.3 μM. 20 to 30 vernalized seeds of thale cress were planted in each well and cultured at 22° C. under continuous light to monitor the number of seeds germinated over time. The germination rate was calculated by the following formula (1). Note that those cultured in medium prepared using methanol in the same manner were used as controls. […] Germination rate (%)=Number of seeds germinated/Number of seeds planted×100 (1)
The same test was carried out as in Test Example 1 with the concentrations of the compound of Example 1 for treatment varying from 0.3 μM to 30 μM.
Similarly, the same test was carried out with the concentrations of the compound of Example 2 for treatment varying from 0.3 μM to 30 μM.
The same test was carried out as in Test Example 2 with the concentrations of the compounds for treatment varying from 0.3 μM to 3 μM to compare the recovery effects on seed germination rate of the compound of Example 1 and the compound of Comparative Example 1.

[2] = system: lettuce (Lactuca saliva) seeds; test: Lettuce seed germination test; type: in vivo; conditions: co-applied with ABA
[3] = system: bok choy (Brassica rapa var. chinensis) seeds; test: Bok choy seed germination test; type: in vivo; conditions: co-applied with ABA
recombined PYL5 = target: T1, recombined PYL5 (Arabidopsis thaliana, UniProt Q9FLB1); test: Bonding affinity measurement using an isothermal titration calorimeter; type: binding, thale cress; conditions: ITC, 20° C., sodium phosphate buffer
T1 construct: 6xHis (N); made in house; host or cells: Escherichia coli BL21-codonplus(DE3)-RIPL
T1 sequence (Q9FLB1 1-203): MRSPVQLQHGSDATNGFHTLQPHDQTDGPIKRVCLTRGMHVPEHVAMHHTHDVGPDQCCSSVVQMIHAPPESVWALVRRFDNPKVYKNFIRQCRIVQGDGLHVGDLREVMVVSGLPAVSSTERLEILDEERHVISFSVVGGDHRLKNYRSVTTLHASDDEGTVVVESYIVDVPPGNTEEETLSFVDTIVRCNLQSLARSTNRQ
Experimental: A sodium phosphate buffer solution of a recombined PYL5 was prepared in the same procedure as in Test Example 5, and put in a reaction cell of an isothermal titration calorimeter (GE Healthcare, MicroCal iTC200), and a sodium phosphate buffer solution of the compound of Example 1 was put in the syringe. Then, the calorimeter was set to 20° C. and the measurement was carded out. The same measurement as above was also carried out for the compounds of Examples 7 to 9.

[4] = system: thale cress (Arabidopsis thaliana, Col-0) seedlings; test: Thale cress growth test; type: in vivo; conditions: 50 μM compound co-applied with 5 μM ABA, sprayed once a day; three weeks' culture
Experimental: Seeds of thale cress (Arabidopsis thaliana, Col-0) were sequentially immersed for 1 minute respectively in 500 μL of an aqueous solution of 5% bleach+1% SDS, 500 μL of a 70% aqueous solution of ethanol and 500 μL of a 70% aqueous solution of ethanol, washed five times in 1 mL of sterilized water, and then suspended in a 0.1% aqueous solution of agar. 25 mL each of germination medium (containing ½ MS medium inorganic salts) sterilized in an autoclave was added to a sterilized plastic petri dish, in which 60 to 80 seeds suspended in the 0.1% aqueous solution of agar were planted and, in a dark place, the seeds were vernilized at 4° C. for 3 days. The seeds were cultured at 22° C. under continuous light for 10 days. 40 g […] of sterilized soil (organic culture soil:vermiculite=1:1) was added to a plastic pot (50 mm×50 mm×50 mm, 35 mm bottom surface×35 mm height). Six plastic pots thus provided were placed in a 3000 mL-tray, 300 mL (depth 10 mm) of an aqueous solution of 1000-fold diluted HYPONeX (tradename (registered trademark), product of HYPONeX JAPAN CORP., LTD.) was added thereto and five roots each of thale cress seedlings were transplanted from the plastic petri dish. The seedlings were cultured at 22° C. under conditions of 16 hour light period-8 hour dark period, and 1 mL of an aqueous solution (prepared so as the final concentration of the compound of Example 7 to be 50 μM) of 0.1% DMSO (containing the compound of Example 7)+0.1% Approach BI (tradename (registered trademark), product of Kao Corporation) was sprayed once a day. Further, 300 mL of an aqueous solution of 2000-fold diluted HYPONeX was added every week. The same treatment as above was carried out using the compound of Comparative Example 1. Note that the seedlings, to which 1 mL of an aqueous solution of 0.1% DMSO+0.1% Approach BI without containing the above compound was sprayed once a day, were used as controls. […]

[5] = 3 μM compound co-applied with 0.3 μM ABA

Kd (recombined PYL5) [nM] | ΔG (recombined PYL5) [kcal/mol] | ΔH (recombined PYL5) [kcal/mol] | −TΔS (recombined PYL5) [kcal/mol] | Structure (SMILES) | Germination rate (%) 24 Hours later [1, 5] [%] | Germination rate (%) 36 Hours later [1, 5] [%] | Germination rate (%) 48 Hours later [1, 5] [%] | Germination rate (%) 60 Hours later [1, 5] [%] | Recovery of seed germination rate decreased by ABA ([1]; compound 0.3 μM to 30 μM co-applied with ABA) | Germination rate (%) 24 Hours later ([1]; compound alone, 3 μM) [%] | Germination rate (%) 36 Hours later ([1]; compound alone, 3 μM) [%] | Germination rate (%) 48 Hours later ([1]; compound alone, 3 μM) [%] | Germination rate (%) 60 Hours later ([1]; compound alone, 3 μM) [%] | Recovery of seed germination rate decreased by ABA [2] | Recovery of seed germination rate decreased by ABA [3] | Growth suppression effect of ABA on thale cress [4]
– | – | – | – | CC1=C[C@@H](OCC#Cc2cccc3ccccc23)CC(C)(C)[C@@]1(O)/C=C/C(C)=C\C(=O)O [Example 2] | 9 | 22 | 53 | 89 | seed germination rates decreased by ABA are recovered | 11 | 27 | 77 | 100 | recovered the seed germination rates once decreased by ABA | recovered the seed germination rates once decreased by ABA | –
480 ± 100 | -9.6 ± 0.1 | -9.7 ± 0.2 | 1.2 | CCCCCCSC1=C(C)[C@](O)(/C=C/C(C)=C\C(=O)O)C(C)(C)CC1=O [Comparative Example 1, 3′-hexylsulfanyl-abscisic acid, reference compound] | 0 | 28 | 67 | 89 | – | 0 | 85 | 100 | 100 | – | – | the growth suppression effect of ABA was not substantially improved
